Laboratory results published in ChEMBL document CHEMBL3627690, “Scaffold-Hopping and Structure-Based Discovery of Potent, Selective, And Brain Penetrant N-(1H-Pyrazol-3-yl)pyridin-2-amine Inhibitors of Dual Leucine Zipper Kinase (DLK, MAP3K12)” (J Med Chem, 2015).

Legend:
human MDR1 [1] = experiment: Permeability across apical to basolateral side in MDCK cells transfected with human MDR1 at 5 uM by LC-MS/MS analysis; details: dog
[2] = target: T1, Mitogen-activated protein kinase kinase kinase 12 (Homo sapiens, UniProt Q12852); experiment: Inhibition of Dox inducible human DLK transfected in HEK293 cells assessed as reduction in JNK phosphorylation incubated for 5.5 hrs measured by Hoechst 33342 staining based imaging analysis; assay type: cell-based
T1 sequence (Q12852 whole entry): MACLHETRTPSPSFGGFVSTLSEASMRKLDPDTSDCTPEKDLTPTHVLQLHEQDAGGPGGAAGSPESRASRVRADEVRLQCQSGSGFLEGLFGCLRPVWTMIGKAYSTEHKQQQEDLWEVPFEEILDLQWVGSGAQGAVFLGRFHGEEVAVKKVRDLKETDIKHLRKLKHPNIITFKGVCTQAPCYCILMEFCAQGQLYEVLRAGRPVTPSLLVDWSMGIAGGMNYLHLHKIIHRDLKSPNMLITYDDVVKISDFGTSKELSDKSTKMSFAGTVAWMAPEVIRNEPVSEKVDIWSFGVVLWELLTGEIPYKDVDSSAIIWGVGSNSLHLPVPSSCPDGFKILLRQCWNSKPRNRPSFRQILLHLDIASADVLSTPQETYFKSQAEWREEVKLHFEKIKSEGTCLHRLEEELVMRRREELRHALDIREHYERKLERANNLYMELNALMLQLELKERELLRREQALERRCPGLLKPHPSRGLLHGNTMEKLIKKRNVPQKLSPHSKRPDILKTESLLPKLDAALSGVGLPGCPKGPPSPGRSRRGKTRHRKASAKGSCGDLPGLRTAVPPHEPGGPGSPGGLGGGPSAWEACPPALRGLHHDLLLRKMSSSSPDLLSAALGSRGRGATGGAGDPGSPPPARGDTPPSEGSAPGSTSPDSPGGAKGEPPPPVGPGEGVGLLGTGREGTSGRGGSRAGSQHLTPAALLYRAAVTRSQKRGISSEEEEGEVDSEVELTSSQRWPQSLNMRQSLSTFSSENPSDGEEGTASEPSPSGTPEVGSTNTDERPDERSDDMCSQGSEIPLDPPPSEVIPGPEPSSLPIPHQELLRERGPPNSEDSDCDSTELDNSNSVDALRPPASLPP

[3] = target: T1, Mitogen-activated protein kinase kinase kinase 12; experiment: Inhibition of N-terminally GST- tagged human DLK catalytic domain (1 to 520 amino acids) using N-terminally HIS-tagged MKK4 K131M as substrate incubated for 60 mins by TR-FRET assay
human MDR1 [4] = experiment: Efflux ratio of permeability across basolateral to apical over apical to basolateral side in MDCK cells transfected with human MDR1 at 5 uM by LC-MS/MS analysis; details: dog

| Structure (SMILES) | Papp A→B at 5 µM (human MDR1 [1]) | IC50 [2] | Ki [3] | efflux ratio at 5 µM (human MDR1 [4]) |
| --- | --- | --- | --- | --- |
| N#Cc1ccnc(Nc2cc(C3CCN(C4COC4)CC3)n(CC3CCC3)n2)c1 | 1.8 ×10⁻⁶ cm/s | 1400 nM | 133 nM |  |
| N#Cc1ccnc(Nc2cn(C3CCN(C4COC4)CC3)c(C3CCCC3)n2)c1 |  |  | > 1600 nM |  |
| N#Cc1ccnc(Nc2cc(C3CCOC3)n(C3CCCC3)n2)c1 (racemic) | 2.7 ×10⁻⁶ cm/s | 698 nM | 54 nM | 1 |
| CC(C)n1nc(Nc2cc(C(F)(F)F)ccn2)cc1C1CCNCC1 | 0.5 ×10⁻⁶ cm/s |  | 145 nM | 36 |
| N#Cc1ccnc(Nc2nc(C3CC3)c(C3CCN(C4COC4)CC3)s2)c1 |  | 8600 nM | 569 nM |  |
| N#Cc1ccnc(Nc2cc(C3CCN(C4COC4)CC3)n(C3CCOCC3)n2)c1 | 1.7 ×10⁻⁶ cm/s |  | 593 nM | 15 |

The remaining lines, values ahead:

| Papp A→B at 5 µM (human MDR1 [1]) | IC50 [2] | Ki [3] | efflux ratio at 5 µM (human MDR1 [4]) | Structure (SMILES) |
| --- | --- | --- | --- | --- |
| 4.9 ×10⁻⁶ cm/s | 459 nM | 48 nM | 3.3 | N#Cc1ccnc(Nc2cc(C3CN(C4COC4)C3)n(C3CCCC3)n2)c1 |
|  |  | > 1600 nM |  | CC(C)n1nc(Nc2ccc(C#N)cn2)cc1C1CCNCC1 |
|  |  | > 1600 nM |  | CC(C)n1nc(Nc2ccc(C(F)(F)F)cn2)cc1C1CCNCC1 |
| 4.2 ×10⁻⁶ cm/s | 721 nM | 48 nM | 5.8 | N#Cc1ccnc(Nc2cc(C3CCN(C4COC4)CC3)n(C3CCC(F)(F)C3)n2)c1 (racemic) |
| 1.9 ×10⁻⁶ cm/s |  | 378 nM | 7.6 | N#Cc1ccnc(Nc2cc(C3CCN(C4COC4)CC3)n(C3CCOC3)n2)c1 (racemic) |
|  |  | 160 nM |  | CC(C)n1nc(Nc2cc(C#N)ccn2)cc1C1CCNCC1 |
| 5.6 ×10⁻⁶ cm/s | 632 nM | 25 nM | 3.7 | N#Cc1ccnc(Nc2cc(C3CCN(C4COC4)C3)n(C3CCCC3)n2)c1 (racemic) |
